Reference: patent US12612410B2 (CHILDREN'S HOSPITAL MEDICAL CENTER, priority 2020, dated 2026)

What was measured:
IRAK4 = target: T1, IRAK4 (Homo sapiens, UniProt Q9NWZ3); assay: Reaction Biology NanoBRET target engagement assay, IRAK4; format: cell-based; details: transfected HEK-293 cells
T1 sequence (Q9NWZ3 1-460): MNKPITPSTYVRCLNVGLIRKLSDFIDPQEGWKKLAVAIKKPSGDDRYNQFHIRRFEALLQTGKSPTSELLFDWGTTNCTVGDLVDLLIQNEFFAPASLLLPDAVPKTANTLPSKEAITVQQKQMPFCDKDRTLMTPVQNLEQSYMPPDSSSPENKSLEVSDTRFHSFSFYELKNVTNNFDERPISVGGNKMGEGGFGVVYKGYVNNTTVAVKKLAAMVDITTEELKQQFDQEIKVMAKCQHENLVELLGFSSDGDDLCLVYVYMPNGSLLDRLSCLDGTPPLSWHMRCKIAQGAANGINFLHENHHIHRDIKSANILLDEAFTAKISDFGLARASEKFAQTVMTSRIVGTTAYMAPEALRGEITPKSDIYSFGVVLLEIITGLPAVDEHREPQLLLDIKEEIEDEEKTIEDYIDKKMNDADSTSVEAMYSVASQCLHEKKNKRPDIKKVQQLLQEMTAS
Excerpt: The NanoBRET assay measures kinase engagement in real time in the context of the intact cell. Unlike the previously described biochemical kinase assay methodologies in Examples 26-27, the NanoBRET assay measures the binding and activity characteristics under equilibrium conditions using full-length kinases in the presence of cellular concentrations of ATP in live, uncompromised cells. As such, the assay provides a more relevant assessment of kinase potency and selectivity that would be expected to be observed in the native cellular environment, where potency is often considerably lower than that observed in the isolated biochemical assays (Vasta, J. D. et al., (2018) Cell Chem. Biol. 25, 206-214). The assay uses a Kinase-NanoLuc® fusion vector expressing a kinase protein to which a luciferase tag has been added, a cell-permeant fluorescent NanoBRET™ tracer, a NanoLuc® substrate, and an extracellular NanoLuc® inhibitor. Upon expression of the luciferase-tagged kinase, cells will produce a strong BRET signal only in the presence of the NanoBRET™ tracer. The extracellular NanoLuc® inhibitor ensures that the BRET signal observed emanates only from live cells. Because the BRET signal has tight distance constraints, addition of the test compound will decrease the BRET signal if the compound competes with the NanoBRET™ tracer for binding to the kinase domain. Under the appropriate tracer conditions established by the manufacturer, quantitative intracellular affinity and relative potency can then be determined using Mass Action model equations.
HEK-293 cells were purchased from ATCC. FuGENEHD Transfection Reagent, Kinase-NanoLucfusion plasmids, Transfection Carrier DNA, NanoBRETTracers and dilution buffer, NanoBRETNano-Glo Substrate, Extracellular NanoLucInhibitor were obtained from Promega.
Assays were conducted following Promega assay protocol with some modifications. HEK-293 Cells were transiently transfected with Kinase-NanoLucFusion Vector DNA by FuGENEHD Transfection Reagent. Testing compounds were delivered into 384 well assay plate by Echo 550 (Labcytelnc, Sunnyvale, CA). Transfected cells were harvested and mixed with NanoBRETTracer Reagent and dispensed into 384 well plates and incubated at 37° C. in 5% CO2 cell culture incubator for 1 hour. The NanoBRETNano-Glo Substrate plus Extracellular NanoLucInhibitor Solution were added into the wells of the assay plate and incubated for 2-3 minutes at room temperature. The donor emission wavelength (460 nm) and acceptor emission wavelength (600 nm) were measured in the EnVisionplate reader. The BRET Ratios were calculated. BRET Ratio=[(Acceptor sample÷Donor sample)−(Acceptor no-tracer control÷Donor no-tracer control)]. The IC50 values of compounds were calculated with Prism GraphPad program.
NanoBRET™ Target Engagement Assay Protocol
1. Transient Transfection of HEK-293 Cells NanoLuc® Fusion Vector DNA
• 1). Cultivate HEK-293 cells (70-80% confluence) appropriately prior to assay. Trypsinize and collect HEK-293 cells. • 2). Prepare lipid: DNA complexes as follows: • a. Prepare a […] solution of DNA in Opti-MEM without serum that consists of the following ratios of carrier DNA and DNA encoding NanoLuc® fusion. 9.0 µg/mL of Transfection Carrier DNA, […] of NanoLuc fusion vector DNA and 1 mL of Opti-MEM without phenol red. Mix thoroughly. • b. Add 30 l of FuGENE HD Transfection Reagent into each milliliter of DNA mixture to form lipid: DNA complex. • c. Mix by inversion 10 times. • d. Incubate at ambient temperature for 20 minutes to allow complexes to form. • 3). In a sterile, conical tube, mix 1 part of lipid: DNA complex with 20 parts of HEK-293 cells in suspension. Mix gently by inversion 5 times. • 4). Dispense cells+lipid: DNA complex into a sterile tissue culture dish and incubate for 22-24 hours. 2. Addition of Test Compounds (dry plate shooting)
Each test compound is delivered from the compound source plate to the wells of 384-well white NBS plate by Echo 550.
3. […]

MOLM14 F691L cells = assay: MOLM14 F691L cell viability assay (Cell Titer Glo); format: cell-based; details: Homo sapiens, MOLM-14, 48 h
Procedure, shortened: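 MOLM14 cells carrying FLT3 D835Y or F691L were seeded at 1000 cells/well in RPMI-1640 with 20% FBS and dosed at 22 concentrations, 1:2 dilutions from 10 μM. Viability after 48 h by Cell Titer Glo luminescence; 2.3 μM bortezomib as cytotoxic control.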

Row | SMILES | IC50 (IRAK4) [µM] | IC50 (MOLM14 F691L cells) [µM]
1 | CC(C)(C)c1cn2c(-c3nc(N[C@@H]4CCCNC4)c(F)cc3F)cnc2cn1 [Compound 126, (R)-6-(6-(tert-butyl)imidazo[1,2-a]pyrazin-3-yl)-3,5-difluoro-N-(piperidin-3-yl)pyridin-2-amine] | < 0.0005 | 0.205
2 | CC(C)(C)c1cn2c(-c3nc(N[C@H]4CNCC[C@@H]4F)c(F)cc3F)cnc2cn1 [Compound 127, 6-(6-(tert-butyl)imidazo[1,2-a]pyrazin-3-yl)-3,5-difluoro-N-((3S,4S)-4-fluoropiperidin-3-yl)pyridin-2-amine] | 0.0004 | 0.41
3 | CC(C)(C)c1cn2c(-c3cccc(N[C@@H]4CCCNC4)n3)cnc2cn1 [Compound 129, (R)-6-(6-(tert-butyl)imidazo[1,2-a]pyrazin-3-yl)-N-(piperidin-3-yl)pyridin-2-amine] | < 0.0005 | 0.163
4 | CC(C)(C)c1cn2c(-c3cccc(N[C@H]4CNCC[C@@H]4F)n3)cnc2cn1 [Compound 130, 6-(6-(tert-butyl)imidazo[1,2-a]pyrazin-3-yl)-N-((3S,4S)-4-fluoropiperidin-3-yl)pyridin-2-amine] | < 0.0005 | 0.13
